{"source": "patent US8012751B2", "about": "“Differentiation of pluripotent embryonic stem cells” (Wisconsin Alumni Research Foundation, priority 2005, dated 2011)", "key": {"mouse embryos": {"test_system": "mouse embryos", "assay": "embryo culture outgrowth experiments", "settings": "treated embryos n=34", "description": "(§1) Three to nine-week-old female B6C3F1 mice (Charles Rivers) were superovulated with a single 10 IU intraperitoneal injection of Pregnant Mare's Serum Gonadotrophin (Gestyl, Diosynth B.V.—OSS). Forty-eight hours later, ovulation was triggered with a single 10 IU intraperitoneal injection of human Chorionic Gonadotrophin (hCG, Novarel/Ferring) and the female mice were mated with male BDF1 mice (Charles Rivers) of proven fertility. Two-cell stage embryos were flushed from the oviducts of the female mice 38 to 40 hours after the hCG injection using modified-Human Tubal Fluid medium (m-HTF, Irvine Scientific) supplemented with 0.5 mg/mL polyvinyl alcohol (PVA, Sigma). The resulting embryos were washed and cultured in the same medium. Groups of 10-15 embryos were cultured at 37° C. with 5% CO2/95% air in 50 μL drops of m-HTF medium covered with mineral oil (Ovoil, Vitrolife). In the outgrowth experiments, the zona pellucida was digested with pronase and embryos were plated out on gelatin in ES cell derivation medium with 1000 U/mL LIF.\n(§2) Human ES cells were plated out as small colonies on matrigel, mouse ES cells on gelatin. DEVD.fmk was added twice a day and half of the ES cell medium was changed daily. As a control, the same volume of DEVD.fmk solvent (DMSO) was added and no significant effect on the number of undifferentiated cells was observed. […]"}, "human ES cells [1]": {"test_system": "human ES cells", "assay": "cell proliferation assay (MTS test)", "type": "cell-based", "experimental": "Human ES cells were grown for the indicated time in 96-wells on Matrigel and a MTS test (CellTiter 96, Promega) was performed according to manufacturers′ instructions.\n(§3) Human ES cells were plated out as small colonies on matrigel, mouse ES cells on gelatin. DEVD.fmk was added twice a day and half of the ES cell medium was changed daily. As a control, the same volume of DEVD.fmk solvent (DMSO) was added and no significant effect on the number of undifferentiated cells was observed. Recombinant TAT-caspase-3rev was added 4 hours after application of caspase blocker and equal volumes of TAT protein served as controls. Mouse embryos were treated once in the 50 μl microdrop with the given concentration of DEVD.fmk or post-incubation 4 hours later with recombinant TAT-caspase-3rev."}, "[2]": {"test_system": "p85 fragment of PARP-1 in human ES cells", "assay": "Western immunoblotting for cleaved p85 PARP-1 fragment", "type": "cell-based", "settings": "human ES cells treated with DEVD.fmk", "experimental": "Cell lysates were collected from H1 Human ES cells grown on mouse embryonic fibroblasts, D3 Mouse ES cells, Human Foreskin Fibroblasts (HF), 19 MEFs, and apoptotic MEFs induced with 25 μl/ml of 3% H2O2. Cytosolic and mitochondrial lysates were isolated using the ApoAlert Cell Fractionation Kit (Clontech, Palo Alto, Calif.) and whole-cell lysates were isolated using M-PER Mammalian Protein Extraction Reagent (Pierce, Rockford, Ill.) with 1:1000 dilution of Protease Inhibitor Cocktail (Sigma) and Pefablock SC (final concentration 0.2 μg/ml)(Sigma). Lysates were run on SDS-PAGE gels, transferred to Trans-Blot Transfer Medium (Bio-Rad, Hercules, Calif.) and peroxidase-conjugated secondary antibodies were detected using Supersignal West Pico Chemiluminscent Substrate (Pierce). Cytochrome C was detected with 1:100 dilution of Cytochrome C Antibody (Clontech) and 1:2000 Goat Anti-Rabbit IgG (H+L) (Caltag Laboratories, Burlingame, Calif). COX4 was detected with dilutions of 1:1000 COX4 Antibody (Clontech) and 1:1000 Anti-mouse IgG (g)-Peroxidase (Roche, Basel, Switzerland). PARP was detected with dilutions of 1:400 anti-p85 PARP (rabbit polyclonal IgG) (Promega) and 1:5000 goat Anti-Rabbit IgG (H+L) (Caltag Laboratories).\nHuman ES cells were plated out as small colonies on matrigel, mouse ES cells on gelatin. DEVD.fmk was added twice a day and half of the ES cell medium was changed daily. […]"}, "human ES cells [3]": {"test_system": "human ES cells", "assay": "Annexin-V EGFP binding (programmed cell death)", "type": "cell-based", "settings": "p=0.0011", "experimental": "Apoptotic cells were detected using the Annexin-V binding kit (ApoAlert, Clontech) or the TUNEL assay kit (DeadEnd, Promega). PARP activity was determined according to a protocol published by Bakondi and others (Bakondi et al., 2002). In order to detect activated caspase-3 or cleaved p85 PARP-1, cells were fixed in CytoFix (BD), permeablized in CytoPerm, and incubated at 1 μg/ml of anti-active caspase-3 antibody (Cellsignalling) or with 1 μg/ml anti-p85 PARP-1 (Promega) overnight at 4° C. The cells were then washed with CytoPern and incubated with secondary anti-rabbit FITC conjugated antibodies (1:200 dilution) for 60 minutes at room temperature. Mouse embryos were fixed in methanol:DMSO (4:1) (Sigma) overnight at 4° C., re-hydrated in 50% methanol, and then incubated with the primary antibodies (anti-p85 PARP-1 or anti-active caspase-3) in PBS with 2% nonfat instant skim milk and 0.5% Triton-X 100 with gentle shaking overnight at 4° C. […]\nCells were treated with trypsin/EDTA and washed with PBS (both reagents are available through Invitrogen Corp.) Dead cells were excluded from analysis by forward- and side-scatter gating. Eighteen samples were analyzed using a FACScan (Becton Dickinson) flow cytometer and Cellquest software (Becton Dickinson). […] Cells were analyzed by flow cytometry analysis in a fluorescence activated cell sorter. […]"}, "mouse morulas": {"test_system": "mouse morulas", "assay": "development of pre-implantation embryos to expanded blastocysts", "description": "as §1, §2"}, "[4]": {"test_system": "PARP-1 activity in human ES cells", "assay": "in vitro PARP activity assay", "type": "cell-based", "settings": "human ES cells treated with DEVD.fmk; p<0.01", "experimental": "Apoptotic cells were detected using the Annexin-V binding kit (ApoAlert, Clontech) or the TUNEL assay kit (DeadEnd, Promega). PARP activity was determined according to a protocol published by Bakondi and others (Bakondi et al., 2002). In order to detect activated caspase-3 or cleaved p85 PARP-1, cells were fixed in CytoFix (BD), permeablized in CytoPerm, and incubated at 1 μg/ml of anti-active caspase-3 antibody (Cellsignalling) or with 1 μg/ml anti-p85 PARP-1 (Promega) overnight at 4° C. The cells were then washed with CytoPern and incubated with secondary anti-rabbit FITC conjugated antibodies (1:200 dilution) for 60 minutes at room temperature. Mouse embryos were fixed in methanol:DMSO (4:1) (Sigma) overnight at 4° C., re-hydrated in 50% methanol, and then incubated with the primary antibodies (anti-p85 PARP-1 or anti-active caspase-3) in PBS with 2% nonfat instant skim milk and 0.5% Triton-X 100 with gentle shaking overnight at 4° C. Embryos were washed 6 times for 5 minutes at room temperature in PBS with 2% nonfat instant skim milk and 0.5% Triton-X 100 with gentle shaking and incubated in the same way with the secondary fluorescent antibody. Cells and embryos were visualized using a confocal laserscan microscope (Leica) or flow cytometry.\nHuman ES cells were plated out as small colonies on matrigel, mouse ES cells on gelatin. […]"}, "human ES cells [5]": {"test_system": "human ES cells", "assay": "microarray gene expression analysis of DEVD.fmk treated cells", "type": "cell-based", "description": "Since ES cells differentiate relatively uniformly from their undifferentiated state into the spindle-shaped cells, we performed a microarray analysis of the differentiated human cells treated with DEVD.fmk. […] In both zebrafish and Xenopus, dickkopf genes have been associated with the development of mesoderm and endoderm. The identity of the differentiated cell type is most likely a common precursor of mesoderm and endoderm (“mesendoderm”)."}, "human ES cells [6]": {"test_system": "human ES cells", "assay": "morphology and time of differentiation of treated ES cells", "type": "cell-based", "experimental": "(§4) H1 human ES cells (WiCell) were cultured as previously described and incorporated by reference herein (Amit et al., 2000). Human ES cells were cultured under feeder-free conditions on culture flasks that were pre-coated with matrigel™ (Becton Dickinson Labware, Bedford, MA), using medium conditioned overnight on dense murine embryonic fibroblasts (MEFs) (Xu et al., 2001a). D3 mouse ES cells (ATCC) were cultured under feeder-free conditions in mouse ES cell medium, consisting of 85% Knock-Out DMEM supplemented with 15% Gibco KNOCKOUT Serum Replacement, 2.5 mM glutamine, 0.1 mM beta-mercaptoethanol (Sigma), and 1000 U/l LIF (Esgro) on gelatin-coated plates. Murine and human fibroblasts and the 293T cell lines were cultivated in DMEM +10% Fetal bovine serum (FBS) and 1% non essential amino acids.\nas §3, with “Mouse embryos were treated once in the 50 μl microdrop with the given concentration of DEVD.fmk or post-incubation 4 hours later with recombinant TAT-caspase-3rev.” left out"}, "[7]": {"test_system": "caspase-3-like activity in ES cells", "assay": "in vitro caspase-3 cell lysate assay", "type": "biochemical, human and mouse", "settings": "treatment with DEVD.fmk", "description": "Activation of caspase-3 is widely considered a marker of the late stages of programmed cell death. In vivo, most of the caspase-3-like enzymatic activity is attributed to caspase-3 and -7. Applicants have therefore assayed caspase-3-like activity in undifferentiated human and mouse ES cell lines using an in vitro cell lysate assay (FIG. 1B, left). […] To further characterize the elevation of caspase-3-like activity in individual ES cells, applicants performed flow cytometry using an antibody specifically recognizing the activated form of caspase-3 (FIG. 1B, right). […] In ES cells, staining for activated caspase-3 was concentrated in the nucleus, with reduced staining in the cytosol (FIG. 1C). In intact embryos, moderate immunostaining of activated caspase-3 was present in all cells of the compacted morula, and in the ICM, but was largely absent in the trophectoderm (FIG. 1D)."}, "human ES cells [8]": {"test_system": "human ES cells", "assay": "Oct4 staining (flow cytometry / immunocytochemistry) of differentiation", "type": "cell-based", "experimental": "as §4\nCells were treated with trypsin/EDTA and washed with PBS (both reagents are available through Invitrogen Corp.) Dead cells were excluded from analysis by forward- and side-scatter gating. Eighteen samples were analyzed using a FACScan (Becton Dickinson) flow cytometer and Cellquest software (Becton Dickinson). A minimum of 50,000 events were acquired for each sample. For Oct4 expression studies cells were stained for Oct4 using monoclonal Oct4 antibody (1 μl/10^6 cells, available through Santa Cruz). Cells were analyzed by flow cytometry analysis in a fluorescence activated cell sorter. […]"}, "[9]": {"settings": "versus undifferentiated ES cells"}}, "data": [{"substance": "N-benzyloxycarbonyl-Asp-Glu-Val-Asp fluoromethylketone (DEVD; HELM PEPTIDE1{[O=C(OCc1ccccc1)[*:2]].D.E.V.D.[FC[*:1]]}$$$$V2.0; SMILES CC(C)[C@H](NC(=O)[C@H](CCC(=O)O)NC(=O)[C@H](CC(=O)O)NC(=O)OCc1ccccc1)C(=O)N[C@@H](CC(=O)O)C(=O)CF) [DEVD.fmk]", "values": [{"measurement": "outgrowth: rind and core structures of extraembryonic endoderm overlying epiblast", "setting": "mouse embryos", "result": "always failed to produce prominent rind and core structures"}, {"measurement": "decrease in proliferation of human ES cells", "setting": "human ES cells [1]; after 3 days", "result": "no longer observed"}, {"measurement": "proliferation of human ES cells", "setting": "human ES cells [1]; first 48 hours after application", "result": "small decrease in proliferation"}, {"measurement": "p85 PARP-1 fragment in Western blot analysis", "setting": "[2]", "result": "disappearance"}, {"measurement": "rate of programmed cell death as measured by Annexin-V EGFP staining", "setting": "human ES cells [3]", "result": "dose-dependent reduction"}, {"measurement": "development to expanded blastocysts", "setting": "mouse morulas; 200 μM DEVD.fmk", "result": "completely inhibiting development to expanded blastocysts"}, {"measurement": "development of blastocysts", "setting": "mouse morulas; added to E2.0, E2.5, E3.0 mouse morulas, dose-dependent", "result": "inhibited the development of blastocysts"}, {"measurement": "PARP-1 activity", "setting": "[4]", "result": "upregulated"}, {"measurement": "up-regulation of DKK4", "setting": "human ES cells [5]; microarray, FIG. 7", "result": "over 170 fold"}, {"measurement": "upregulation of BMP4", "setting": "human ES cells [5]; [9]", "result": 45, "unit": "X"}, {"measurement": "upregulation of DKK4", "setting": "human ES cells [5]; [9]", "result": 137, "unit": "X"}, {"measurement": "upregulation of GATA-3", "setting": "human ES cells [5]; [9]", "result": 9, "unit": "X"}, {"measurement": "upregulation of WNT3", "setting": "human ES cells [5]; [9]", "result": 3, "unit": "X"}, {"measurement": "upregulation of WNT5A", "setting": "human ES cells [5]; [9]", "result": 5, "unit": "X"}, {"measurement": "upregulation of brachyury variant A", "setting": "human ES cells [5]; [9]", "result": 73, "unit": "X"}, {"measurement": "time to differentiate into morphologically uniform mesendoderm cells", "setting": "human ES cells [6]; human ES cells incubated with caspase inhibitor", "result": "2-3 days"}, {"measurement": "cell morphology", "setting": "human ES cells [6]; human ES cells treated with DEVD.fmk", "result": "differentiated to a spindle shape cell with a much smaller nuclear-cytoplasmic ratio"}, {"measurement": "caspase-3-like activity", "setting": "[7]", "result": "reduced this activity"}, {"measurement": "induction of differentiation as measured by Oct4 staining", "setting": "human ES cells [8]; human ES cells, p<0.01", "result": "dose dependent induction of differentiation"}, {"measurement": "Oct4 staining by immunocytochemistry", "setting": "human ES cells [8]; spindle-shaped cells after DEVD.fmk, data not shown", "result": "failed to stain for Oct4"}]}]}
